Literature values in article PMC12299890 (Pharmaceuticals, 2025).
Read-outs that look alike come from different tables or passages of the source.

Design: method as in PMID 27121673
Details: cited from earlier work

For `O[C@H]1[C@H](O)[C@@H](O)[C@H](O)[C@@H](O)[C@@H]1O` [SCI, scyllo-inositol], which “Time of maximum plasma concentration” value (after the last dose, 2000 mg two times a day for 10 days) is on record?
Its value is 2.9 h.

What about the “AUC of SCI in CSF” value (day 1, oral 2000 mg two times a day) of the same compound?
Its value is 49.4 mg·h/L.

And the “AUC of SCI in CSF” value (day 11, oral 2000 mg two times a day)?
The value was 153.0 mg·h/L.

What about the “Increase of brain concentration of SCI during the study” value (oral 2000 mg two times a day for 10 days) of the same compound?
Its value is 58–76%.

And the Side effects reported (oral 2000 mg two times a day)?
Its Side effects reported is “No side effects”.

What about the “Time of peak SCI plasma concentration” value (plasma, after first oral dose of 2000 mg twice a day) of the same compound?
The value was 3.8 h.
